Laboratory results taken from patent publication US20240270762A1, “PENICILLIN-BINDING PROTEIN INHIBITORS” (priority 2021, published 2024).
In brackets after ≈: the same amount, converted by molar mass.

How the values were obtained:
P. aeruginosa ATCC 35151 = test: microbe, parasite or virus in culture; assay type: cell-based; details: Pseudomonas aeruginosa, ATCC35151, read-out: Minimum inhibitory concentration, P. aeruginosa ATCC 35151
A. baumannii CDC-0083 = test: microbe, parasite or virus in culture; assay type: cell-based; details: Acinetobacter baumannii, CDC0083, read-out: MIC, A. baumannii CDC-0083
A. baumannii CDC-0045 = test: microbe, parasite or virus in culture; assay type: cell-based; details: Acinetobacter baumannii, CDC0045, read-out: MIC, A. baumannii CDC-0045
P. aeruginosa ATCC 27853 = test: microbe, parasite or virus in culture; assay type: cell-based; details: Pseudomonas aeruginosa, ATCC27853, read-out: Minimum inhibitory concentration, P. aeruginosa ATCC 27853
[1] = target: T1, PBP1a from Acinetobacter baumannii (ATCC 19606) (Acinetobacter baumannii, UniProt A0ABX6CK30); test: Bocillin-FL fluorescence polarization competition binding, A. baumannii PBP1a; details: fluorescence polarization competition binding assay using Bocillin-FL; read-out: A. baumannii PBP1a Potency
T1 sequence (A0ABX6CK30 1-851): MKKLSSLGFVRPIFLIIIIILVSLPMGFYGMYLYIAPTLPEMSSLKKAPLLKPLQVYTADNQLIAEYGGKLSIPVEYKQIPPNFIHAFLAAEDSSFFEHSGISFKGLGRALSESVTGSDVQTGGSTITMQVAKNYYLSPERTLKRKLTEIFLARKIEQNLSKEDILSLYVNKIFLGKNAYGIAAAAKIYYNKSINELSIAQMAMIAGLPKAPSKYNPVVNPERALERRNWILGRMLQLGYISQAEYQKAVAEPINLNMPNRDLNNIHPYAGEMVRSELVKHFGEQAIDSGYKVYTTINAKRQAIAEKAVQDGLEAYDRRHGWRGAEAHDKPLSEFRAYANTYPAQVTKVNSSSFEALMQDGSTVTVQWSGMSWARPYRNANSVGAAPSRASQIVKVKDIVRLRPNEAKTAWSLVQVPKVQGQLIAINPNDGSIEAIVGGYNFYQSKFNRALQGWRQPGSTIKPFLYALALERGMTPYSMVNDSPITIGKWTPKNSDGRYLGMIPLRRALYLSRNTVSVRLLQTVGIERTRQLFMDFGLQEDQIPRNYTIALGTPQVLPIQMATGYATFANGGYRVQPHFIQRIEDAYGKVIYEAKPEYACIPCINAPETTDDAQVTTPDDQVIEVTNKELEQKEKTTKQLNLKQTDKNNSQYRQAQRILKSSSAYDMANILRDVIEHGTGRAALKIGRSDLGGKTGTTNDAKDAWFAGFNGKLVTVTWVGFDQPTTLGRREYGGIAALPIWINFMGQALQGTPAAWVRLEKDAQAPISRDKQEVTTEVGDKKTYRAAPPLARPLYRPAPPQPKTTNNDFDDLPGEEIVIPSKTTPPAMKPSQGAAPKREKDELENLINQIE
Excerpt: To determine the ability of boronic acid-based test PBP inhibitors to bind Penicillin Binding Proteins (PBPs), Bocillin-FL (fluorescently-labeled penicillin V; ThermoFisher Scientific) was used in a fluorescence polarization (FP) competition binding assay to assess inhibitor binding to PBP3 from Escherichia coli (K-12), PBP3 from Pseudomonas aeruginosa (PAO1), PBP1a and PBP3 from Acinetobacter baumannii (ATCC 19606), and PBP2 from Neisseria gonorrhoeae (FA19). PBPs were cloned and purified as described previously (E. coli PBP3, King, D. T, et al., ACS Infectious Diseases 2015, 1, 175-184; P. aeruginosa PBP3, Han et. al., PNAS 2010, 107 (51), 22002-22007; A. baumannii PBPs, Penwell et. al., Antimicrob. Agents Chemother. 2015, 59 (3), 1680-1689; N. gonorrhoeae PBP2, Singh et. al., J. Biol. Chem. 2019, 294 (38), 14020-14032). To establish assay conditions for competition binding, enzyme titration/saturation binding experiments were initially performed. Bocillin-FL was prepared at 0.2 μM in a buffer comprised of 50 mM Hepes (pH 8.0), 300 mM NaCl and 10% (v/v) glycerol for reactions with E. coli, P. aeruginosa and N. gonorrhoeae PBPs, and 25 mM Tris (pH 8.0), 200 mM NaCl, 10% (v/v) glycerol and 0.005% (v/v) Tween 20 for reactions with A. baumannii PBPs. Saturation binding was performed by mixing 40 μl of PBP solutions ranging in concentrations from 0-24 μM with 40 μl of the 0.2 μM Bocillin-FL solution, in individual wells of a black 384-well microplate. FP was measured immediately upon mixing (Excitation, 490 nm; Emission, 520 nm; g-factor, 0.96), using a Cytation3 (BioTek) microplate reader and measured continuously for up to 120 minutes. The FP response stabilized after 15 minutes for P. aeruginosa and A. baumannii PBP3, 30 minutes for E. coli PBP3 and A. baumannii PBP1a, and less than 1 minute for N. gonorrhoeae PBP2. […] The competition binding assay (80 μl final volume) was validated using beta-lactams and PBPs at final concentrations of: 1.5 μM for E. coli PBP3; 0.75 μM for P. aeruginosa PBP3; 1 μM for A. baumannii PBP1a; 0.2 μM for A. baumannii PBP3; and 0.25 μM for N. gonorrhoeae PBP2. Bocillin-FL was at 0.1 μM (0.05 μM with A. baumannii PBP1a) and beta-lactam concentrations ranged from 0-1,000 μM. E. coli PBP3 was incubated with increasing concentrations of ampicillin in a black 384-well microplate (Corning) for 30 minutes. P. aeruginosa PBP3 was incubated for 15 minutes with aztreonam, whereas A. baumannii PBP1a and PBP3 were incubated for 15 minutes with meropenem, and then Bocillin-FL was added followed immediately by the FP measurement for up to 60 minutes. […] The beta-lactam potency was reported as the concentration of beta-lactam required to reduce the amount of PBP bound-Bocillin-FL by 50% (EC50). […] The EC50 of aztreonam was determined to be <0.5 μM for P. aeruginosa PBP3. […] Binding assays for boronic acid PBP inhibitors were performed in an identical fashion for the respective PBPs.

A. baumannii PBP2 = A. baumannii PBP2 (Acinetobacter baumannii, UniProt D0C8Z9); test: Bocillin-FL competition binding via gel filtration, A. baumannii PBP2
How it was run: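 Competitive equilibrium binding; reporter Bocillin-FL. PBP + inhibitor (titration) pre-incubated → Bocillin-FL, 15 min → gel filtration → fluorescence. EC50 from Hill fit of fraction bound vs [inhibitor].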

Sequence of A. baumannii PBP2 (D0C8Z9 whole entry): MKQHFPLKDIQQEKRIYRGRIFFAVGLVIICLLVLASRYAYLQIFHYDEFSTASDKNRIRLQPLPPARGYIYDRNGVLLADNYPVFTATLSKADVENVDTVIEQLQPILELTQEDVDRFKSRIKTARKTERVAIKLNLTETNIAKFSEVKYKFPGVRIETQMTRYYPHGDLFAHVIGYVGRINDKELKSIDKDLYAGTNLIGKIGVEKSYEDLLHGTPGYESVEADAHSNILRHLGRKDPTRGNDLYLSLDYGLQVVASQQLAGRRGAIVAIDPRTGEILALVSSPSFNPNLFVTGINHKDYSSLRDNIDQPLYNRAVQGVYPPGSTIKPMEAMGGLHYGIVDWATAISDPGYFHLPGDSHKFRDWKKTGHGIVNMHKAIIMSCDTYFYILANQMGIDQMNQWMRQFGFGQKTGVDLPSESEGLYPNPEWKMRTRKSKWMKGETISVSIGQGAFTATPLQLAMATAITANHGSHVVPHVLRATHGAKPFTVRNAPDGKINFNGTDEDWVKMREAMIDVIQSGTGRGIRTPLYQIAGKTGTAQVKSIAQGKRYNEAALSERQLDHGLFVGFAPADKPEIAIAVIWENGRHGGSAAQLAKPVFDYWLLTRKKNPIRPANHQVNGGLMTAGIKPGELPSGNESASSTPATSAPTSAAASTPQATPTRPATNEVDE

| Compound | MIC (P. aeruginosa ATCC 35151) | MIC (A. baumannii CDC-0083) | MIC (A. baumannii CDC-0045) | MIC (P. aeruginosa ATCC 27853) | IC50 [1] | EC50 (A. baumannii PBP2) |
| --- | --- | --- | --- | --- | --- | --- |
| CS(=O)(=O)N1CCN(C(=O)N[C@@H](C(=O)N[C@H]2Cc3ccc(F)c(C(=O)O)c3OB2O)c2ccc(P(=O)(O)O)c(F)c2)C1=O (single isomer, unassigned) [Example 19] | 2 to 4 µg/mL (≈ 3.09 to 6.19 µM) | > 128 µg/mL | > 128 µg/mL | > 128 µg/mL | – | – |
| CS(=O)(=O)N1CCN(C(=O)N[C@@H](C(=O)N[C@H]2Cc3cccc(C(=O)O)c3OB2O)c2ccc(P(=O)(O)O)c(F)c2F)C1=O (single isomer, unassigned) [Example 13] | – | – | – | – | > 250 µM | – |
| CS(=O)(=O)N1CCN(C(=O)N[C@@H](C(=O)N[C@H]2Cc3ccc(F)c(C(=O)O)c3OB2O)c2ccc(P(=O)(O)O)c(F)c2F)C1=O [Example 16, (R)-3-((R)-2-(2,3-difluoro-4-phosphonophenyl)-2-(3-(methylsulfonyl)-2-oxoimidazolidine-1-carboxamido)acetamido)-7-fluoro-2-hydroxy-3,4-dihydro-2H-benzo[e][1,2]oxaborinine-8-carboxylic acid] | – | – | – | – | > 250 µM | – |
| O=C(O)c1c(F)ccc2c1OB(O)[C@@H](NC(=O)C(NC(=O)N1CCN(Cc3ccc(O)c(O)c3Cl)C(=O)C1=O)c1ccc(P(=O)(O)O)cc1)C2 (stereo partly drawn) [Example 8, (3R)-3-(2-(4-(2-chloro-3,4-dihydroxybenzyl)-2,3-dioxopiperazine-1-carboxamido)-2-(4-phosphonophenyl)acetamido)-7-fluoro-2-hydroxy-3,4-dihydro-2H-benzo[e][1,2]oxaborinine-8-carboxylic acid] | < 1 µg/mL | < 1 µg/mL | < 1 µg/mL | < 1 µg/mL | – | 10 to 50 µM |
| O=C(O)c1c(F)ccc2c1OB(O)[C@@H](NC(=O)C(NC(=O)N1CCN(Cc3ccc(O)c(O)c3Cl)C1=O)c1ccc(P(=O)(O)O)cc1)C2 (stereo partly drawn) [Example 46, (3R)-3-(2-(3-(2-chloro-3,4-dihydroxybenzyl)-2-oxoimidazolidine-1-carboxamido)-2-(4-phosphonophenyl)acetamido)-7-fluoro-2-hydroxy-3,4-dihydro-2H-benzo[e][1,2]oxaborinine-8-carboxylic acid] | < 1 µg/mL | – | – | 2 to 4 µg/mL (≈ 2.83 to 5.66 µM) | > 250 µM | 10 to 50 µM |
| CCN1CCN(C(=O)NC(C(=O)N[C@H]2Cc3cccc(C(=O)O)c3OB2O)c2cccc(CP(=O)(O)O)c2)C(=O)C1=O (stereo partly drawn) [Example 22, (3R)-3-(2-(4-ethyl-2,3-dioxopiperazine-1-carboxamido)-2-(3-(phosphonomethyl)phenyl)acetamido)-2-hydroxy-3,4-dihydro-2H-benzo[e][1,2]oxaborinine-8-carboxylic acid] | – | – | – | – | > 250 µM | – |
| CS(=O)(=O)N1CCN(C(=O)NC(C(=O)N[C@H]2Cc3cccc(C(=O)O)c3OB2O)c2ccc(P(=O)(O)O)c(O)c2)C1=O (stereo partly drawn) [Example 17, (3R)-2-hydroxy-3-(2-(3-hydroxy-4-phosphonophenyl)-2-(3-(methylsulfonyl)-2-oxoimidazolidine-1-carboxamido)acetamido)-3,4-dihydro-2H-benzo[e][1,2]oxaborinine-8-carboxylic acid] | – | – | – | – | – | 50 to 250 µM |
| CS(=O)(=O)N1CCN(C(=O)NC(C(=O)N[C@H]2Cc3cccc(C(=O)O)c3OB2O)c2ccc(P(=O)(O)O)c(Cl)c2)C1=O (stereo partly drawn) [Example 11, (3R)-3-(2-(3-chloro-4-phosphonophenyl)-2-(3-(methylsulfonyl)-2-oxoimidazolidine-1-carboxamido)acetamido)-2-hydroxy-3,4-dihydro-2H-benzo[e][1,2]oxaborinine-8-carboxylic acid] | – | – | – | – | 50 to 250 µM | – |
| O=C(NCCN1CCN(C(=O)NC(C(=O)N[C@H]2Cc3ccc(F)c(C(=O)O)c3OB2O)c2ccc(P(=O)(O)O)cc2)C(=O)C1=O)c1ccc(O)c(O)c1Cl (stereo partly drawn) [Example 120, (3R)-3-(2-(4-(2-(2-chloro-3,4-dihydroxybenzamido)ethyl)-2,3-dioxopiperazine-1-carboxamido)-2-(4-phosphonophenyl)acetamido)-7-fluoro-2-hydroxy-3,4-dihydro-2H-benzo[e][1,2]oxaborinine-8-carboxylic acid] | < 1 µg/mL | < 1 µg/mL | < 1 µg/mL | < 1 µg/mL | – | 10 to 50 µM |
| CCN1CCN(C(=O)NC(C(=O)N[C@H]2Cc3cccc(C(=O)O)c3OB2O)c2ccc(CP(=O)(O)O)cc2)C(=O)C1=O (stereo partly drawn) [Example 20, (3R)-3-(2-(4-ethyl-2,3-dioxopiperazine-1-carboxamido)-2-(4-(phosphonomethyl)phenyl)acetamido)-2-hydroxy-3,4-dihydro-2H-benzo[e][1,2]oxaborinine-8-carboxylic acid] | – | – | – | – | > 250 µM | – |
| O=C(O)c1cccc2c1OB(O)[C@@H](NC(=O)C(NC(=O)N1CCN(Cc3ccc(O)c(O)c3Cl)C(=O)C1=O)c1ccc(P(=O)(O)O)cc1)C2 (stereo partly drawn) [Example 24, (3R)-3-(2-(4-(2-chloro-3,4-dihydroxybenzyl)-2,3-dioxopiperazine-1-carboxamido)-2-(4-phosphonophenyl)acetamido)-2-hydroxy-3,4-dihydro-2H-benzo[e][1,2]oxaborinine-8-carboxylic acid] | < 1 µg/mL | < 1 µg/mL | < 1 µg/mL | 2 to 4 µg/mL (≈ 2.79 to 5.58 µM) | > 250 µM | 10 to 50 µM |
| O=C(N[C@@H](C(=O)N[C@H]1Cc2cccc(C(=O)O)c2OB1O)c1ccc(P(=O)(O)O)cc1)c1ccc(O)c(O)c1Cl [Example 49, (R)-3-((R)-2-(2-chloro-3,4-dihydroxybenzamido)-2-(4-phosphonophenyl)acetamido)-2-hydroxy-3,4-dihydro-2H-benzo[e][1,2]oxaborinine-8-carboxylic acid] | < 1 µg/mL | > 128 µg/mL | > 128 µg/mL | 2 to 4 µg/mL (≈ 3.39 to 6.77 µM) | – | 10 to 50 µM |
